Source: US11485720B2, “Anti-infective agents” (University of Dundee, priority 2016, dated 2022)
Values after ≈ are worked out from the molar mass of the structure shown. Values joined by “and” are separate entries in the source; they are usually repeats but may differ in a detail not shown here. Identical values can stand only once. Like-named read-outs stand apart in the source and are kept apart here.

Key:
[1] = target: T1, Plasmodium falciparum lysyl t-RNA synthetase (Pf-KRS1) (Plasmodium falciparum, UniProt Q8IDJ8); assay: Pf-KRS1 inhibition biochemical assay (Kinase-Glo, ATP depletion)
T1 construct: Pf KRS1-; made in house; host or cells: E. coli BL21 (DE3)
T1 sequence (Q8IDJ8 entry or part of it, looked up, natural form): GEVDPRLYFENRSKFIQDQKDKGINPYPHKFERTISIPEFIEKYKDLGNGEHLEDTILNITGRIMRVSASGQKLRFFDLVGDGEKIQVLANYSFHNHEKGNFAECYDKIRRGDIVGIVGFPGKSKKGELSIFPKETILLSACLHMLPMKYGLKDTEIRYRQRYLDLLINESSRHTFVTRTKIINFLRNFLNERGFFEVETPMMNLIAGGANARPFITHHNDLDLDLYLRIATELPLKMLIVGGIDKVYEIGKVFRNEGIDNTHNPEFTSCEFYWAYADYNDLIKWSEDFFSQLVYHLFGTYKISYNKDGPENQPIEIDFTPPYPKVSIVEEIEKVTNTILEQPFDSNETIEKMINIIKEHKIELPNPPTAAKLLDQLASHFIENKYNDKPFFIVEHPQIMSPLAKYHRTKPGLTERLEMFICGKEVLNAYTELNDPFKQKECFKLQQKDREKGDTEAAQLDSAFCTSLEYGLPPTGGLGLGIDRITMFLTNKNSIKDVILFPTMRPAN
Outline: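 Recombinant Pf-KRS1 (75 nM working concentration) in HEPES/KOH/MgCl2/KCl buffer with 3 μM ATP, 60 μM L-lysine, 0.4 mg/ml yeast tRNA and pyrophosphatase; compounds at 50 μM–2.5 nM final. Reaction ran 5 h at room temperature, then remaining ATP was read by Kinase-Glo luminescence. IC50 came from nonlinear fits of % inhibition against controls.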

[2] = system: Plasmodium falciparum strain 3D7; assay: Plasmodium falciparum 3D7 in vitro growth inhibition (SYBRgreen I); format: cell-based; details: Plasmodium falciparum, 3D7; read-out: pEC50 for Pf 3D7 (converted)
Outline: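 10-point, 1-in-3 dilution series from a top concentration of 50 μM; parasite growth read as SYBRgreen I fluorescence on double-stranded DNA (ex 485/em 528 nm). EC50 = concentration causing 50% parasite death, from at least 3 independent experiments.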

Cryptosporidium parvum [3] = assay: In vitro Crytosporidium inhibition assay; format: cell-based; details: for EC50: Cryptosporidium parvum, read-out: Cryptosporidium parvum pEC50 (converted)
Text: Assay Method for Measurement of In Vitro Inhibition of Crytosporidium.
These experiments were run in accordance with the method of Besssoff et. al. Antimicrob. Agents Chemother. 2013, 57:1804-1814. Results from these experiments are provided in the Experimental Results hereinafter.

Hep G2 = Hep G2 in-vitro cytotoxicity assay; format: cell-based; details: Homo sapiens, HepG2, read-out: Hs HEPG2 pEC50 (converted)
Outline: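 Hep G2 human hepatocyte carcinoma cells serve as a general mammalian cell toxicity indicator, following the Mersch-Sundermann procedure.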

Cryptosporidium parvum [4] = assay: Anti-Cryptosporidium in vivo efficacy, NOD SCID gamma mouse model; details: 50 mg/kg, twice a day (bid), 4 days
Text: Measurement of Anti-Cryptosporidium In Vivo Efficacy
The in vivo measurement of the potential efficacy of compounds of formula (I) in two cryptosporidium models has been carried out.
The cryptosporidiosis NOD SCID gamma mouse model were run as follows: Male NOD SCID gamma mice (NOD.Cg-Prkdc^scid Il2rg^tm1Wjl/SzJ, Jackson Labs) were infected approximately 2 weeks post weaning with 10^5 C. parvum Iowa strain oocysts by oral gavage. Four mice were used per experimental group. This establishes a chronic, asymptomatic infection of the small intestine, cecum, and biliary tree. Fecal parasite shedding is monitored by quantitative PCR to amplify C. parvum DNA. One week after infection (which is the timing with which shedding becomes uniformly detected), compounds are dosed by oral gavage based. Treatment continued for four days total. Fecal oocyst shedding is reported on day 1 (7 days after initial infection with sample taken just prior to the first dose of compound) and day 5 (1 day after completion of the last dose).

Leishmania donovani [5] = assay: Leishmania donovani intramacrophage inhibition assay (Ld-INMAC); format: cell-based; details: intramacrophage amastigotes in THP-1 cells, read-out: Ld-INMAC pEC50 (converted)
Experimental: Assay Method for Measurement of In Vitro Inhibition of Leishmania donovani.
These experiments were run in accordance with the method as detailed herein and results from these experiments are provided in the Experimental Results hereinafter.
The intramacrophage Leishmania assay was performed as described in de Rycker et al (Antimicrob Agents Chemother, 2013 July; 57(7):2913-22. doi: 10.1128/AAC.02398-12). Briefly, 1 μl of compound was pre-dispensed into 384 well sterile intermediary plates. For single point screening, amphotericin B was added to all wells of column 24 as a positive control (final concentration 2 μM) and DMSO to column 23. For potency determinations, ten-point, one in three dilution curves were created with the highest concentration being 50 μM and on each plate a control curve of amphotericin B was included. Controls were as follows: columns 11 and 12: DMSO, columns 23 and 24: amphotericin B (final concentration 2 μM). To the intermediary plates, 100 μl of THP-1 media was added and plates were shaken for >5 min to ensure complete mixing. THP-1 cells (8,000 per well, 50 μl) were plated into black clear-bottom 384 well plates (Corning) in presence of 10 nM PMA. After 20 min at room temperature, the plates were incubated at 37° C. under 5% CO2 in a humidified incubator for 75 h. The cells were then washed with […] sterile phosphate buffered saline (PBS) supplemented with 1 mM CaCl2, 0.5 mM MgCl2, 0.1% (w/v) bovine serum albumin (PBS-A) and amastigotes were added to all wells at a multiplicity of infection of 5 (40,000 amastigotes per well). After 40 min at room temperature, plates were returned to the incubator. Amastigotes were incubated in the presence of macrophages for 16 h. Any remaining extracellular amastigotes were subsequently removed with an overflow wash of 1 ml PBS-A per well (wash buffer is being aspirated from the top of the well as it is being dispensed) followed by addition of 25 μl of the compound pre-dilutions using a Matrix Hydra DT pipetting station. The final dilution of each compound was 200-fold. Plates were incubated for 72 h and then washed (250 μl PBS-A) and fixed (4% (v/v) formaldehyde-PBS, 30 min, room temperature). After fixation, the wells were washed with 250 μl PBS, stained (10 μg/ml DAPI, 0.4 μg ml-1 HCS Cellmask Deep Red in PBS+0.1% (v/v) Triton X-100, 30 min, room temperature) and washed with 250 μl PBS. Finally, PBS+0.05% (v/v) thimerosal was added to the wells, the plates were sealed and imaged on a high-content microscope (GE IN Cell 1000 or GE IN Cell 2000) using a 10× objective. Image analysis was carried out with GE IN Cell Analyzer 1000 Workstation using the “Multi Target Analysis” module. […]

THP-1 cells = assay: THP-1 host cell count in intramacrophage Leishmania assay; format: cell-based; details: Homo sapiens, host cell toxicity, read-out: THP1 pEC50 (converted)
Experimental: The intramacrophage Leishmania assay was performed as described in de Rycker et al (Antimicrob Agents Chemother, 2013 July; 57(7):2913-22. doi: 10.1128/AAC.02398-12). Briefly, 1 μl of compound was pre-dispensed into 384 well sterile intermediary plates. For single point screening, amphotericin B was added to all wells of column 24 as a positive control (final concentration 2 μM) and DMSO to column 23. For potency determinations, ten-point, one in three dilution curves were created with the highest concentration being 50 μM and on each plate a control curve of amphotericin B was included. Controls were as follows: columns 11 and 12: DMSO, columns 23 and 24: amphotericin B (final concentration 2 μM). To the intermediary plates, 100 μl of THP-1 media was added and plates were shaken for >5 min to ensure complete mixing. THP-1 cells (8,000 per well, 50 μl) were plated into black clear-bottom 384 well plates (Corning) in presence of 10 nM PMA. After 20 min at room temperature, the plates were incubated at 37° C. under 5% CO2 in a humidified incubator for 75 h. The cells were then washed with […] sterile phosphate buffered saline (PBS) supplemented with 1 mM CaCl2, 0.5 mM MgCl2, 0.1% (w/v) bovine serum albumin (PBS-A) and amastigotes were added to all wells at a multiplicity of infection of 5 (40,000 amastigotes per well). After 40 min at room temperature, plates were returned to the incubator. Amastigotes were incubated in the presence of macrophages for 16 h. Any remaining extracellular amastigotes were subsequently removed with an overflow wash of 1 ml PBS-A per well (wash buffer is being aspirated from the top of the well as it is being dispensed) followed by addition of 25 μl of the compound pre-dilutions using a Matrix Hydra DT pipetting station. The final dilution of each compound was 200-fold. Plates were incubated for 72 h and then washed (250 μl PBS-A) and fixed (4% (v/v) formaldehyde-PBS, 30 min, room temperature). After fixation, the wells were washed with 250 μl PBS, stained (10 μg/ml DAPI, 0.4 μg ml-1 HCS Cellmask Deep Red in PBS+0.1% (v/v) Triton X-100, 30 min, room temperature) and washed with 250 μl PBS. Finally, PBS+0.05% (v/v) thimerosal was added to the wells, the plates were sealed and imaged on a high-content microscope (GE IN Cell 1000 or GE IN Cell 2000) using a 10× objective. Image analysis was carried out with GE IN Cell Analyzer 1000 Workstation using the “Multi Target Analysis” module. Settings for segmentation were as follows: nuclei: minimum area: 142.384 μm^2, sensitivity: 81, method: top-hat; cells: characteristic area: 2500 μm^2, sensitivity: 60, method: multiscale top-hat; organelles (amastigotes): granule size 1-3, 3 scales, sensitivity: 90, detection in entire cell. […]

Leishmania donovani [6] = assay: Ld-cAxAm-TP-pMIC assay; format: cell-based; details: read-out: Ld-cAxAm-TP-pMIC pEC50 (converted)
Plasmodium falciparum = assay: Anti-malarial in vivo efficacy, Plasmodium falciparum SCID mouse model; details: 20 mg/kg, 4 days
Text: Measurement of Anti-Malarial In Vivo Efficacy The in vivo measurement of the potential efficacy of compounds of formula (I) in a malarial model has been carried out. These in vivo experiments were run in accordance with the method published in Jimenez-Diaz, M. B. et al., Antimicrob. Agents Chemother. 53, 4533-4536, (2009). Results from these experiments are provided in the Experimental Results hereinafter.

M. tuberculosis H37Rv = assay: In vitro inhibition of M. tuberculosis H37Rv (MIC, resazurin); format: cell-based; details: Mycobacterium tuberculosis, read-out: Mtb MIC
PfLysRS = PfLysRS (Plasmodium falciparum, UniProt Q8IDJ8); details: cited from earlier work
PfLysRS, sequence (Q8IDJ8 1-583): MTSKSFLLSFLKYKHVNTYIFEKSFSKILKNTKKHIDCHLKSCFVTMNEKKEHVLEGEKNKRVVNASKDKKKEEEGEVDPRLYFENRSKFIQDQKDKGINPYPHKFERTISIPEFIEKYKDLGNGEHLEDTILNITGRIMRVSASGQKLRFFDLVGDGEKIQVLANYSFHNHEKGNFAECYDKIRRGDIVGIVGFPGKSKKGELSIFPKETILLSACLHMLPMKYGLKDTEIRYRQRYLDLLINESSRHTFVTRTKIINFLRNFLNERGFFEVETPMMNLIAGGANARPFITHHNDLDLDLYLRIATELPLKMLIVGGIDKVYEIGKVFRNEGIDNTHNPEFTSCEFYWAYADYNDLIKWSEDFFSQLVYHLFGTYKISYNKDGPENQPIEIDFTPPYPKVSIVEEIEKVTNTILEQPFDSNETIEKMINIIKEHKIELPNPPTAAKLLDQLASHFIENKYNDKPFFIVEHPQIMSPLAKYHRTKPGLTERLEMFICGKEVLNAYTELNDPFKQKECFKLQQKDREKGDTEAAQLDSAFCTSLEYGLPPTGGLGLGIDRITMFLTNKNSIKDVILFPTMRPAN

[7] = target: Schistosoma mansoni (Sm) lysyl-tRNA synthetase; details: cited from earlier work
[8] = system: blood and liver stages of Plasmodium; details: cited from earlier work
[9] = cited from earlier work
[10] = read-out: Pf-KRS pIC50 (converted)

SMILES	IC50 [1, 10]	EC50 [2] [nM]	EC50 (Cryptosporidium parvum [3]) [nM]	EC50 (Hep G2) [nM]	% Reduction in parasitaemia (Cryptosporidium parvum [4]) [%]	further results
O=C(NCC1CCCCC1)c1cc(=O)c2ccc(F)c(O)c2o1 [Example 78, N-(cyclohexylmethyl)-7-fluoro-8-hydroxy-4-oxo-4H-chromene-2-carboxamide]	79.4 nM	100	1	20000	99.4	
O=C(NCC1(O)CCC(F)(F)CC1)c1cc(=O)c2cc(F)ccc2o1 [Example 54, N-[(4,4-difluoro-1-hydroxy-cyclohexyl)methyl]-6-fluoro-4-oxo-chromene-2-carboxamide]	126 nM and 251 nM		1260	50100		Cryptosporidium parvum pEC50 (Cryptosporidium parvum [3]): 5.8; EC50 (Leishmania donovani [5]): 31600 nM; EC50 (THP-1 cells): 50100 nM; EC50 (Leishmania donovani [6]): 12600 nM; % Reduction in parasitaemia (Plasmodium falciparum): 99.2%
O=C(NCC1(O)CCCCC1)c1cc(=O)c2cc(F)cc(O)c2o1 [Example 74, 6-fluoro-8-hydroxy-N-((1-hydroxycyclohexyl)methyl)-4-oxo-4H-chromene-2-carboxamide]	50.1 nM	63.1	39.8	31600	92.5	MIC (M. tuberculosis H37Rv): 25 µM (≈ 8.38 µg/mL)
C[C@H]1CCC[C@H](C[C@H]2Cc3cc(O)cc(O)c3C(=O)O2)O1 [Cladosporin, cladosporin]						selectivity vs HsLysRS (PfLysRS): more than 100 fold; IC50 ([7]; Sharma et al., read-out: Sm LysRS IC50): 97 nM; selectivity vs HsLysRS ([7]; Sm LysRS vs HsLysRS): more than 60 fold; inhibition of blood and liver stages of Plasmodium [8]: nanomolar inhibitor; bioavailability [9]: poorly bioavailable
O=C(NCC1(O)CCCCC1)c1cc(=O)c2ccc(F)c(O)c2o1 [Example 77, 7-fluoro-8-hydroxy-N-((1-hydroxycyclohexyl)methyl)-4-oxo-4H-chromene-2-carboxamide]		126	126	39800	99.6	IC50 ([1]; Pf-KRS pIC50): 100 nM
